Test results as given in paper PMC8318231, “Rate-of-Kill (RoK) assays to triage large compound sets for Chagas disease drug discovery: Application to GSK Chagas Box” (PLoS Neglected Tropical Diseases, 2021).

How the values were obtained:
[1] = test system: T. cruzi Tulahuen trypomastigotes; test: T. cruzi trypomastigote assay (Cell Titer-Glo viability, ATP luminescence); assay type: cell-based, Trypanosoma cruzi; conditions: for Trypomastigotes pIC50 48 hours: 48 hours incubation; for Trypomastigotes pIC50 48 hours / Trypomastigotes pIC50 72 hours: pIC50 = -log10 IC50 in molar units; for Trypomastigotes pIC50 72 hours: 72 hours incubation; for 72 pIC50: 72 h
In short: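 Compounds were tested in dose response or once at a final 5 μM against 5 × 10^4 trypomastigotes per well (DMEM, 2% FBS), collected on days 5–8 from LLC-MK2 infected cultures. ATP luminescence via CellTiter-Glo reports live parasites; DMSO defines 0% and cell-free wells 100% effect.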

[2] = test system: T. cruzi intracellular amastigotes in H9c2 cells; test: Rate-of-Kill (RoK) high-content imaging assay, amastigotes per cell (AM/CELL) and curve descriptors; assay type: cell-based, Trypanosoma cruzi; parameters: key to ME_24h / ME_48h / ME_72h: % reduction in parasite burden (cidal response); t50pct_MCC50 / t50pct_Cmax: unit not given here; conditions: for ME_24h: 24h; for ME_48h: 48h; for ME_72h: 72h; for t50%_Cmax / tlag_Cmax / t50pct_Cmax: at Cmax; for ME_24h (%): maximum effect at 24 h; for ME_24h (%) / ME_48h (%) / ME_72h (%): RoK assay; for ME_48h (%): maximum effect at 48 h; for ME_72h (%): maximum effect at 72 h; for ME 24h (maximum effect at 24 hours, intracellular amastigotes): maximum percentage of parasite burden reduction reached by any concentration
Experimental: For this high-content intracellular imaging assay, H9c2 cells were seeded in 225 cm^2 T- FLASK in DMEM with 10% FBS for 4 h to allow attachment. T. cruzi trypomastigotes, collected at days 5 to 8 after infection from LLC-MK2 parasite infected cultures, were allowed to swim out for 4 h at 37°C from a centrifuged pellet (1,600 x g / 10 min). Trypomastigotes were then collected and counted in a CASY Cell Counter using the 60 μm capillary. Trypomastigotes, in supplemented DMEM, were added to H9c2 cultures in a multiplicity of infection (MOI) of 8 and incubated for 18 h. Cells were washed once with PBS before incubation of the infected H9c2 monolayer with trypsin (Life-Technologies) to detach cells from the flask. Cells were counted in a CASY Cell Counter, using the 150 μm capillary, and their density set at 5 x 10^4 cells/mL in supplemented DMEM. Infected H9c2 were dispensed into 384-well plates at 50 μL per well using a Multidrop Combi dispenser. Control wells used to determine a 100% parasitic growth (full 6th column of each plate) were left untreated, whereas not infected cells were added in the control wells used as 0% parasite growth (or 100% parasite growth inhibition; full 18th column of each plate). The four plates corresponding to each RoK assay were predispensed for the same mother plate. […] Cultures were then fixed and stained with 50 μL per well of a PBS solution containing 4% formaldehyde and 2 μM DRAQ5 DNA dye (BioStatus, UK). Then plates were read in a PerkinElmer Opera Phenix using a 20x objective, 3 fields per well. DRAQ5 signal was detected using 640 nm excitation laser and a 690/50 nm emission detection filter. Automated image analysis was performed with a script developed on Acapella High Content Imaging and Analysis Software (PerkinElmer). Two outputs were provided for each sample well: (1) number of host cells nuclei to determine drug-related cytotoxicity (aka H9c2) and (2) number of amastigotes per cell as infection level measurement (aka AM/CELL). Each output is plotted as a time course for each compound at every concentration. This assay was adapted from Alonso-Padilla et al. and Peña et al..
To identify and classify the different compounds, the number of amastigotes per cell (AM/CELL) raw data obtained in rate of kill assay are normalised using the average of C1 (infected cells) at time 4 hours as 0% effect and the average of C2 (non-infected cells) for each time as 100% effect, according to the following Eq 1: %CIDALRESPONSE=100*[Avg_C14h-RawData]/[Avg_C14h-Avg_C2] (1)
• ME (Maximum Effect) is the maximum percentage of parasite burden reduction reached by any compound concentration. Compounds that decrease the initial parasite load will show a positive value of ME, whereas compounds that allow the progression of infection will render a negative ME value. […] It is calculated for the MCC50 (t50%_MCC50) and for the maximum concentration (t50%_Cmax). […] The value of this parameter is not either interpolated or extrapolated, and it refers to the first experimental time-course point at which a 50% of effect is reached or exceeded. • tlag defines the time elapsed for one particular concentration to reduce parasite burden between two consecutive points at any moment of the time course. It is calculated for the MCC50 (tlag_MCC50) and for the maximum concentration (tlag_Cmax). The value of this parameter is not either interpolated or extrapolated, and it refers to the first experimental time-course point of a positive slope in the normalised plot (i.e. %Cidal_Response). • Cmin_Tox (Minimal CytoToxic Concentration) is the lowest compound concentration that is reducing the number of host mammalian cells below 50% of initial cell density. Cytotoxic compounds may mislead a bona fide antiparasitic action.

With `COc1ccc(C2CC(c3ccccc3Cl)=NN2C(=O)CNC(=O)C2CCC2)cc1` (stereo not drawn) [TCMDC-143130] the “Trypomastigotes pIC50 48 hours” value [1] was 4.6, the “Trypomastigotes pIC50 72 hours” value [1] was 4.7 and the ME_24h ([2]; figure 5) was 26.5695. The ME_48h ([2]; figure 5) was 65.3197, the ME_72h ([2]; figure 5) was 85.0018 and the “MCC50” value ([2]; RoK curve descriptor) was 5.6 µM. For the same molecule, the “MCCE” value ([2]; RoK curve descriptor) was 1.9 µM, the “AM/CELL NORM” value ([2]; Time 4, sheet figure 4 A) was 21.8567 and the “AM/CELL NORM” value ([2]; Time 24, sheet figure 4 A) was 26.5695. For the same molecule, the “AM/CELL NORM” value ([2]; Time 48, sheet figure 4 A) was 65.3197, the “AM/CELL NORM” value ([2]; Time 72, sheet figure 4 A) was 85.0018 and the “t50%_Cmax” value [2] was 48.0 h. For the same molecule, the “tlag_Cmax” value [2] was 4.0 h, the t50pct_Cmax ([2]; figure 5) was 48 and the tlag_Cmax ([2]; figure 5) was 4. For the same molecule, the “t50%_MCC50” value ([2]; at MCC50) was 72.0 h, the “tlag_MCC50” value ([2]; at MCC50) was 4.0 h and the t50pct_MCC50 ([2]; at MCC50, figure 5) was 72. For the same molecule, the tlag_MCC50 ([2]; at MCC50, figure 5) was 4, the MCCE ([2]; figure 5) was 1.852 and the MCC50 ([2]; figure 5, in µM) was 5.556. The “ME_24h (%)” value [2] was 26.6%, the “ME_48h (%)” value [2] was 65.3% and the “ME_72h (%)” value [2] was 85.0%. For the same molecule, the “ME 24h (maximum effect at 24 hours, intracellular amastigotes)” value (“ME 24h” below) [2] was 26.5695%.
In the case of `Cc1sc(C)c(C(F)(F)F)c1CNCCCNc1cc(=O)c2ccccc2[nH]1.Cl` [TCMDC-140766], the “Trypomastigotes pIC50 48 hours” value [1] is reported as 4.9, the “Trypomastigotes pIC50 72 hours” value [1] is reported as 5.3 and the “ME (maximum effect) in RoK assay (in words)” value [2] is reported as “high ME at 24 hours and 72 hours”. For the same molecule, the “tlag (in words)” value [2] was “short tlag times”, the ME_24h ([2]; figure 5) was 54.6006 and the ME_48h ([2]; figure 5) was 64.1651. The ME_72h ([2]; figure 5) was 71.5778, the “MCC50” value ([2]; RoK curve descriptor) was 5.6 µM and the “MCCE” value ([2]; RoK curve descriptor) was 0.6 µM. The “AM/CELL NORM” value ([2]; Time 4, figure 4 A) was 7.643, the “AM/CELL NORM” value ([2]; Time 24, figure 4 A) was 58.2122 and the “AM/CELL NORM” value ([2]; Time 48, figure 4 A) was 67.454. For the same molecule, the “AM/CELL NORM” value ([2]; Time 72, figure 4 A) was 69.5653, the “t50%_Cmax” value [2] was 24.0 h and the “tlag_Cmax” value [2] was 4.0 h. The t50pct_Cmax ([2]; figure 5) was 24, the tlag_Cmax ([2]; figure 5) was 4 and the “t50%_MCC50” value ([2]; at MCC50) was 72.0 h. The “tlag_MCC50” value ([2]; at MCC50) was 4.0 h, the t50pct_MCC50 ([2]; at MCC50, figure 5) was 72 and the tlag_MCC50 ([2]; at MCC50, figure 5) was 4. The MCCE ([2]; figure 5) was 0.6173, the MCC50 ([2]; figure 5, in µM) was 5.556 and the “ME_24h (%)” value [2] was 54.6%. For the same molecule, the “ME_48h (%)” value [2] was 64.2%, the “ME_72h (%)” value [2] was 71.6% and the “ME 24h” value [2] was 58.2122%.
In the case of `CS(=O)(=O)c1cccc(-c2cnc(N)c3c(-c4ccc(CO)cc4)csc23)c1.O=C(O)C(F)(F)F` [TCMDC-143410], the “Trypomastigotes pIC50 48 hours” value [1] is reported as 4.5, the “Trypomastigotes pIC50 72 hours” value [1] is reported as 4.4 and the ME_24h ([2]; figure 5) is reported as 16.9023. For the same molecule, the ME_48h ([2]; figure 5) was 39.285, the ME_72h ([2]; figure 5) was 41.8133 and the “MCC50” value ([2]; RoK curve descriptor) was 1.9 µM. For the same molecule, the “MCCE” value ([2]; RoK curve descriptor) was 1.2 µM, the “AM/CELL NORM” value ([2]; Time 4, sheet figure 4 A) was 25.2958 and the “AM/CELL NORM” value ([2]; Time 24, sheet figure 4 A) was 6.562. The “AM/CELL NORM” value ([2]; Time 48, sheet figure 4 A) was -1.837, the “AM/CELL NORM” value ([2]; Time 72, sheet figure 4 A) was 13.104 and the “tlag_Cmax” value [2] was 36.0 h. For the same molecule, the t50pct_Cmax ([2]; figure 5) was 72, the tlag_Cmax ([2]; figure 5) was 36 and the “t50%_MCC50” value ([2]; at MCC50) was 72.0 h. For the same molecule, the “tlag_MCC50” value ([2]; at MCC50) was 4.0 h, the t50pct_MCC50 ([2]; at MCC50, figure 5) was 72 and the tlag_MCC50 ([2]; at MCC50, figure 5) was 38. For the same molecule, the MCCE ([2]; figure 5) was 1.235, the MCC50 ([2]; figure 5, in µM) was 25.9259 and the “ME_24h (%)” value [2] was 16.9%. The “ME_48h (%)” value [2] was 39.3%, the “ME_72h (%)” value [2] was 41.8% and the “ME 24h” value [2] was 40.1676%.
`O=C1CSC(c2cccnc2)N1c1ccc(Cl)cc1Cl` (stereo not drawn) [TCMDC-143114] was tested, and the “Trypomastigotes pIC50 48 hours” value [1] was less than 4.3, the “Trypomastigotes pIC50 72 hours” value [1] was less than 4.3 and the “72 pIC50 (trypomastigotes, raw data of Fig 1D)” value ([1]; 72 hours, plotted values, censored values given without sign) was less than 4.3. For the same molecule, the “48 pIC50” value ([1]; trypomastigote assay, 48 h, figure 1A) was less than 4.3, the “72 pIC50” value ([1]; trypomastigote assay, figure 1A) was less than 4.3 and the “72 pIC50” value ([1]; trypomastigote assay, figure 1B) was less than 4.3. The ME_24h ([2]; figure 5) was -4.949, the ME_48h ([2]; figure 5) was 48.1247 and the ME_72h ([2]; figure 5) was 74.0117. For the same molecule, the “MCC50” value ([2]; RoK curve descriptor) was 50.0 µM, the “MCCE” value ([2]; RoK curve descriptor) was 0.6 µM and the “AM/CELL NORM” value ([2]; Time 4, sheet figure 4 A) was 4.621. The “AM/CELL NORM” value ([2]; Time 24, sheet figure 4 A) was -4.949, the “AM/CELL NORM” value ([2]; Time 48, sheet figure 4 A) was 48.1247 and the “AM/CELL NORM” value ([2]; Time 72, sheet figure 4 A) was 74.0117. The “t50%_Cmax” value [2] was 72.0 h, the “tlag_Cmax” value [2] was 24.0 h and the t50pct_Cmax ([2]; figure 5) was 72. The tlag_Cmax ([2]; figure 5) was 24, the “t50%_MCC50” value ([2]; at MCC50) was 72.0 h and the “tlag_MCC50” value ([2]; at MCC50) was 24.0 h. The t50pct_MCC50 ([2]; at MCC50, figure 5) was 72, the tlag_MCC50 ([2]; at MCC50, figure 5) was 24 and the MCC50 ([2]; figure 5) was 50 µM. The MCCE ([2]; figure 5) was 0.6173, the “ME_24h (%)” value [2] was -5.0% and the “ME_48h (%)” value [2] was 48.1%. The “ME_72h (%)” value [2] was 74.0% and the “ME 24h” value [2] was -4.949%.
